Measurements: US9062028B2, “Bicyclic nitrogen containing heteroaryl TGR5 receptor modulators” (Bristol-Myers Squibb Company, priority 2011, dated 2015)
Where a name gives a salt, the structure may show the parent alone.

Biological target: T1, recombinant human TGR5 (Homo sapiens, UniProt Q8TDU6)
T1 construct: expressed in transfected cells
T1 sequence (Q8TDU6 1-330): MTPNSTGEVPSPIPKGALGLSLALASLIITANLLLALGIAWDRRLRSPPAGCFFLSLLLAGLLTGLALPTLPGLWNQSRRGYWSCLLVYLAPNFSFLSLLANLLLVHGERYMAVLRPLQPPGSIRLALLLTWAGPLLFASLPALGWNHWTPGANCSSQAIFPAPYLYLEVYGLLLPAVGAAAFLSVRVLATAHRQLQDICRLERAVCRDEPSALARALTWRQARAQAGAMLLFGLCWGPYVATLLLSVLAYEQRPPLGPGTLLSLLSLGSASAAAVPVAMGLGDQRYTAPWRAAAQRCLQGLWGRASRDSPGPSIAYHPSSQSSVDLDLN
Experiment: cAMP assay (cAMP accumulation, HTRF) in CHOK1 cells stably expressing TGR5
Type: cell-based
Details: CHOK1 cells stably expressing human TGR5, 30 minutes at RT, 1% DMSO
Method in brief: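 CHOK1 cells stably expressing TGR5 (text also calls it chimeric human/mouse), 0.4-0.5×10^6 cells/mL in PBS with Ca/Mg and 0.1 mM IBMX, compound 30 min at RT, 1% DMSO. cAMP by HTRF 665/620 interpolated to a standard curve; EC50 from 4-parameter fit as half-maximal increase.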

Structure (SMILES)	EC50 [µM]
Cc1c(Cl)cccc1OCCOC(=O)N1C[C@@H]2C[C@@H]2c2c(-c3cnn(Cc4cc(C(=O)NC(CNS(C)(=O)=O)C(=O)O)ccc4Cl)c3)cccc21 (stereo partly drawn) [Example 685, 2-(4-Chloro-3-((4-((1aR,7bS)-3-((2-(3-chloro-2-methylphenoxy)ethoxy)carbonyl)-1a,2,3,7b-tetrahydro-1H-cyclopropa[c]quinolin-7-yl)-1H-pyrazol-1-yl)methyl)benzamido)-3-(methylsulfonamido)propanoic acid]	0.049
Cc1cccc(OCCCC(=O)N2C[C@@H]3C[C@@H]3c3c(-c4cnn(Cc5cccc(NC(=O)NCC(=O)O)c5)c4)cccc32)c1C (single isomer, unassigned) [Example 250]	0.029
Cc1cccc(OCCCC(=O)N2CCCc3c(-c4cccc(COC(=O)NC(CP(=O)(O)O)C(=O)O)c4)cccc32)c1C (stereo not drawn) [Example 319, 2-((3-(1-(4-(2,3-Dimethylphenoxy)butanoyl)-1,2,3,4-tetrahydroquinolin-5-yl)benzyloxy)carbonylamino)-3-phosphonopropanoic acid]	3.82
Cc1cccc(OCCCC(=O)N2CCSc3c(-c4cnn(Cc5c(F)cc(C(=O)NCC(=O)O)cc5Cl)c4)cccc32)c1C [Example 576, 2-(3-Chloro-4-((4-(4-(4-(2,3-dimethylphenoxy)butanoyl)-3,4-dihydro-2H-benzo[b][1,4]thiazin-8-yl)-1H-pyrazol-1-yl)methyl)-5-fluorobenzamido) acetic acid]	0.048
Cc1cccc(OCCCC(=O)N2CCOc3c(-c4cnn(Cc5cccc(S(=O)(=O)N[C@@H](CCC[N+](C)(C)C)C(=O)O)c5)c4)cccc32)c1C [Example 505, (S)-4-Carboxy-4-(3-((4-(4-(4-(2,3-dimethylphenoxy)butanoyl)-3,4-dihydro-2H-benzo [b][1,4]oxazin-8-yl)-1H-pyrazol-1-yl)methyl)phenyl-sulfonamido)-N,N, N-trimethylbutan-1-aminium, TFA salt]	1.73
Cc1c(Cl)cccc1OCCOC(=O)N1C[C@@H]2C[C@@H]2c2c(-c3cnn(Cc4cc(C(=O)N5C[C@@H](O)C[C@H]5C(=O)O)ccc4Cl)c3)cccc21 [Example 693, (2S,4S)-1-(4-Chloro-3-((4-((1aR,7bS)-3-((2-(3-chloro-2-methylphenoxy)ethoxy)carbonyl)-1a,2,3,7b-tetrahydro-1H-cyclopropa[c]quinolin-7-yl)-1H-pyrazol-1-yl)methyl)benzoyl)-4-hydroxypyrrolidine-2-carboxylic acid]	0.188
Cc1c(Cl)cccc1OCCCC(=O)N1CCCOc2c(-c3cnn(Cc4c(F)cc(C(=O)NCCS(=O)(=O)O)cc4Cl)c3)cccc21 [Example 703, 2-(3-Chloro-4-((4-(5-(4-(3-chloro-2-methylphenoxy)butanoyl)-2,3,4,5-tetrahydrobenzo[b][1,4]oxazepin-9-yl)-1H-pyrazol-1-yl)methyl)-5-fluorobenzamido)ethanesulfonic acid]	0.046
CCOC(=O)CNC(=O)Nc1cccc(Cn2cc(-c3cccc4c3[C@H]3C[C@H]3CN4C(=O)CCCOc3cccc(Cl)c3C)cn2)c1 [Example 914, Ethyl 2-(3-(3-((4-((1aR,7bS)-3-(4-(3-chloro-2-methylphenoxy)butanoyl)-1a,2,3,7b-tetrahydro-1H-cyclopropa[c]quinolin-7-yl)-1H-pyrazol-1-yl)methyl)phenyl)ureido)acetate]	0.032
Cc1c(Cl)cccc1OCCCC(=O)N1C[C@@H]2C[C@@H]2c2c(-c3cnn(Cc4cccc(NC(=O)NCC(=O)O)c4)c3)cccc21 [Example 916, 2-(3-(3-((4-((1aR,7bS)-3-(4-(3-Chloro-2-methylphenoxy)butanoyl)-1a,2,3,7b-tetrahydro-1H-cyclopropa[c]quinolin-7-yl)-1H-pyrazol-1-yl)methyl)phenyl)ureido) acetic acid]	0.037
Cc1c(Cl)cccc1OCCCC(=O)N1CCSc2c(-c3cnn(Cc4cccc(C(=O)N[C@@H](CC(N)=O)C(=O)O)c4)c3)cccc21 [Example 614, (S)-4-Amino-2-(3-((4-(4-(4-(3-chloro-2-methylphenoxy)butanoyl)-3,4-dihydro-2H-benzo[b][1,4]thiazin-8-yl)-1H-pyrazol-1-yl)methyl)benzamido)-4-oxobutanoic acid]	0.046
Cc1cccc(N(CCCC(=O)N2CCCc3c(-c4cnn(Cc5cccc(C(=O)O)c5)c4)cccc32)C(=O)OC(C)(C)C)c1C [Example 933, 3-((4-(1-(4-(tert-Butoxycarbonyl(2,3-dimethylphenyl)amino)butanoyl)-1,2,3,4-tetrahydroquinolin-5-yl)-1H-pyrazol-1-yl)methyl)benzoic acid]	1.61
Cc1c(Cl)cccc1OCCCC(=O)N1C[C@@H]2C[C@@H]2c2c(-c3cnn(Cc4cccc(N5C(=O)[C@H](CCC[N+](C)(C)C)N(C)C5=O)c4)c3)cccc21 [Example 352, 3-((S)-1-(3-((4-((1aR,7bS)-3-(4-(3-Chloro-2-methylphenoxy)butanoyl)-1a,2,3,7b-tetrahydro-1H-cyclopropa[c]quinolin-7-yl)-1H-pyrazol-1-yl)methyl)phenyl)-3-methyl-2,5-dioxoimidazolidin-4-yl)-N,N,N-trimethylpropan-1-aminium, TFA salt]	0.196

Continued, values first:

EC50 [µM]	Structure (SMILES)
1.84	Cc1cccc(OCCCC(=O)N2CCCc3c(-c4cnn(Cc5cccc(N(C)C(=O)N(C)CC[N+](C)(C)C)c5)c4)cccc32)c1C [Example 472, 2-(3-(3-((4-(1-(4-(2,3-Dimethylphenoxy)butanoyl)-1,2,3,4-tetrahydroquinolin-5-yl)-1H-pyrazol-1-yl)methyl)phenyl)-1,3-dimethylureido)-N,N,N-trimethylethanaminium, TFA salt]
2.96	Cc1cccc(OCCCC(=O)N2CCCc3c(-c4cnn(Cc5ccc[n+](C)c5)c4)cccc32)c1C [Example 467, 3-((4-(1-(4-(2,3-Dimethylphenoxy)butanoyl)-1,2,3,4-tetrahydroquinolin-5-yl)-1H-pyrazol-1-yl)methyl)-1-methylpyridinium]
2.11	Cc1cccc(OCCCC(=O)N2CCCc3c(-c4cnn(Cc5cccc(S(=O)(=O)N[C@@H](CCC[N+](C)(C)C)C(=O)O)c5)c4)cccc32)c1C [Example 507, (S)-4-Carboxy-4-(3-((4-(1-(4-(2,3-dimethylphenoxy)butanoyl)-1,2,3,4-tetrahydroquinolin-5-yl)-1H-pyrazol-1-yl)methyl)phenyl-sulfonamido)-N,N, N-trimethylbutan-1-aminium]
1.53	Cc1cccc(OCCCC(=O)N2CCCc3c(-c4cnn(Cc5cccc(C(=O)N(C)[C@@H](CC(=O)O)C(=O)O)c5)c4)cccc32)c1C [Example 481, (S)-2-(3-((4-(1-(4-(2,3-Dimethylphenoxy)butanoyl)-1,2,3,4-tetrahydroquinolin-5-yl)-1H-pyrazol-1-yl)methyl)-N-methylbenzamido)succinic acid]
5	Cc1cccc(OCCCC(=O)N2CCCc3c(-c4cnc(OCC(=O)O)nc4)cccc32)c1C [Example 124, 2-(5-(1-(4-(2,3-Dimethylphenoxy)butanoyl)-1,2,3,4-tetrahydroquinolin-5-yl)pyrimidin-2-yloxy)acetic acid, TFA salt]
3.14	Cc1cccc(OCCCC(=O)N2CCCc3c(-c4cnn(CCNC(=O)NCC(=O)O)c4)cccc32)c1C [Example 110G, 2-(3-(2-(4-(1-(4-(2,3-Dimethylphenoxy)butanoyl)-1,2,3,4-tetrahydroquinolin-5-yl)-1H-pyrazol-1-yl)ethyl)ureido)acetic acid]
